In PubChem BioAssay (NCI):
Where “and” joins values, the source holds several entries; their conditions need not be identical. Identical values can stand only once.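 How tested: cells in 96-well plates exposed to compound for 48 hours at five concentrations. Here, GI50 denotes the concentration required for 50% inhibition of growth. TGI marks complete inhibition of growth.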

Key:
Assay in all cases: inhibition of tumour cell growth, NCI panel, 48 h
[1] = tested on: HCC-2998 colon
[2] = tested on: DMS 273 small cell lung
[3] = tested on: HOP-92 NSCLC
[4] = tested on: XF 498 CNS
[5] = tested on: LXFL 529 NSCLC
[6] = tested on: CAKI-1 renal
[7] = tested on: HCT-116 colon
[8] = tested on: SF-268 CNS
[9] = tested on: MCF7 breast
[10] = tested on: T-47D breast
[11] = tested on: BT-549 breast

CN(C)CN(C)c1nc(N(C)C)nc(N(C)C)n1
TGI [1]: > 100 µM | TGI [2]: > 100 µM | TGI [3]: > 100 µM | TGI [4]: > 100 µM | TGI [5]: > 100 µM | TGI [6]: > 100 µM | TGI [7]: > 100 µM | TGI [8]: > 100 µM

O=C(N[C@H]1CC2(C=C(I)C(=O)C(I)=C2)OC1=O)OCc1ccccc1
TGI [1]: 34.6 µM | TGI [4]: 26.8 µM | TGI [5]: 30.2 µM | TGI [6]: 36.3 µM | TGI [7]: 29.6 µM | TGI [8]: 33.1 µM

NC(=O)N1N=C2c3ccccc3OC[C@H]2[C@@H]1c1ccccc1
TGI [1]: > 37.1 µM | TGI [2]: > 100 µM | TGI [3]: > 100 µM | TGI [4]: > 100 µM | TGI [5]: > 100 µM | TGI [6]: > 100 µM | TGI [7]: > 39.2 µM | TGI [8]: > 80.4 µM

O=C(Cn1ccnc1[N+](=O)[O-])NCc1ccc(F)cc1
TGI [2]: > 100 µM | TGI [3]: > 100 µM | TGI [4]: > 100 µM | TGI [5]: > 100 µM | TGI [6]: > 100 µM | TGI [8]: > 100 µM

O=C(NCCOC(=O)CCCCCCCCC(=O)OCCNC(=O)NC(=O)c1cn(Cc2ccccc2)c(=O)[nH]c1=O)NC(=O)c1cn(Cc2ccccc2)c(=O)[nH]c1=O
TGI [1]: > 100 µM | TGI [2]: > 100 µM | TGI [4]: > 100 µM | TGI [5]: > 100 µM | TGI [6]: > 100 µM | TGI [7]: > 100 µM | TGI [8]: > 100 µM

Nc1cccc(C(=O)/C=C/c2ccccc2O)c1
TGI [1]: > 100 µM | TGI [2]: > 100 µM | TGI [3]: > 100 µM | TGI [4]: > 100 µM | TGI [5]: > 100 µM | TGI [6]: > 100 µM | TGI [7]: > 100 µM | TGI [8]: > 100 µM

Cc1cc2nc3c(C(OC4OC(CO)C(O)C(O)C4O)C(O)CO)nn(-c4ccc(F)cc4)c3nc2cc1C (stereo not given)
TGI [1]: > 100 µM | TGI [4]: > 100 µM | TGI [5]: > 100 µM | TGI [7]: > 100 µM | TGI [8]: > 100 µM

CCCC/C=C1/CCC(CN(C)C)C1=O (stereo not given)
TGI [1]: 3.07 µM | TGI [2]: 5.76 µM | TGI [3]: 3.83 µM | TGI [9]: 4.34 µM | TGI [5]: 1.36 µM | TGI [6]: 1.78 µM | TGI [10]: 2.64 µM | TGI [7]: 4.01 µM | TGI [8]: 5.91 µM

Cc1ccc(-n2cc(/C(N)=N/O)c3ccccc3c2=O)cc1
TGI [1]: > 100 µM | TGI [2]: > 100 µM | TGI [4]: > 100 µM | TGI [5]: > 100 µM | TGI [7]: > 100 µM | TGI [8]: > 100 µM

CC(=O)O[C@H]1C(=O)[C@@]2(C)C([C@H](OC(=O)c3ccccc3)[C@]3(O)C[C@H](OC(=O)[C@H](O)[C@@H](NC(=O)c4ccc(Cl)cc4)c4ccccc4)C(C)=C1C3(C)C)C1(OC(C)=O)CO[C@@H]1C[C@@H]2O (stereo not given in full)
TGI [11]: 0.212 µM | TGI [1]: 0.608 µM | TGI [9]: 25 µM | TGI [4]: 3.73 µM | TGI [5]: 57.2 µM | GI50 [6]: 0.0269 µM | TGI [6]: 25 µM and 32.3 µM | TGI [10]: 25 µM | TGI [7]: 3.31 µM and 1.85 µM | TGI [8]: 25 µM and 82.5 µM

O=C(CC/C(CC(=O)c1ccc(Cl)cc1)=N\O)Nc1cccc(Cl)c1
TGI [1]: > 100 µM | TGI [2]: > 100 µM | TGI [4]: > 100 µM | TGI [5]: > 100 µM | TGI [6]: > 100 µM | TGI [8]: > 100 µM

Cc1ccccc1NC(=O)C(=O)CC(=O)c1sc(-n2nc(-c3ccccc3)cc2-c2ccccc2)nc1C
TGI [1]: > 100 µM | TGI [2]: > 100 µM | TGI [3]: > 100 µM | TGI [5]: > 100 µM | TGI [6]: > 100 µM | TGI [7]: > 100 µM | TGI [8]: > 100 µM

c1ccc2c(c1)n1nnnc1c1nnnn21
TGI [1]: > 100 µM | TGI [2]: > 100 µM | TGI [3]: > 100 µM | TGI [4]: > 100 µM | TGI [5]: > 100 µM | TGI [6]: > 100 µM | TGI [7]: > 100 µM | TGI [8]: > 100 µM

Clc1ccc(/C=C/c2csnn2)cc1
TGI [1]: > 100 µM | TGI [2]: > 100 µM | TGI [3]: > 100 µM | TGI [4]: > 100 µM | TGI [5]: > 100 µM | TGI [6]: > 100 µM | TGI [7]: > 100 µM | TGI [8]: > 100 µM

Cc1cccc(NC(=O)CSc2nnc(-c3ccc(N=Cc4ccc(Cl)cc4)cc3)o2)c1
TGI [2]: > 100 µM | TGI [4]: > 100 µM | TGI [5]: > 100 µM | TGI [7]: > 100 µM | TGI [8]: > 100 µM

CC1(O)CC2C(CC1SCc1ccccc1)C2(C)C (stereo not given)
GI50 [1]: 24.1 µM and > 100 µM | TGI [1]: 50 µM and > 100 µM | TGI [2]: 33.1 µM and 29.2 µM | TGI [3]: 66.4 µM and 14.4 µM | TGI [4]: 32.9 µM and 37.4 µM | GI50 [5]: 38.6 µM and 14.8 µM | TGI [5]: > 100 µM and 28.1 µM | TGI [6]: 32 µM and 25.2 µM | TGI [7]: 47.9 µM and 30.2 µM | TGI [8]: 54.9 µM and 42 µM

C=C(/C=C/C=C(\CO)CCC=C(C)C)[C@H]1CCC2([C@H](CCCO)/C(=C(/C)C=O)CC[C@]2(C)O)[C@H]1O (stereo not given in full)
TGI [1]: > 100 µM | TGI [2]: > 100 µM | TGI [3]: > 100 µM | TGI [4]: > 100 µM | TGI [5]: > 100 µM | TGI [6]: > 100 µM | TGI [7]: > 100 µM

O=C(Nc1c(Cl)cc([N+](=O)[O-])cc1Cl)C(=O)C(C(=O)c1ccncc1)C1OC(=O)c2ccccc21 (stereo not given)
TGI [1]: > 100 µM | TGI [2]: > 100 µM | TGI [3]: > 100 µM | TGI [4]: > 100 µM | TGI [5]: > 100 µM | TGI [6]: > 100 µM | TGI [7]: > 100 µM | TGI [8]: > 100 µM

O=C1Cc2c([nH]c3ccccc23)-c2cc(Br)ccc2N1
TGI [1]: > 100 µM | TGI [2]: > 100 µM | TGI [3]: > 100 µM | TGI [5]: > 100 µM | TGI [6]: > 100 µM | TGI [7]: > 100 µM | TGI [8]: > 100 µM

COc1cc([C@H]2c3cc4c(cc3[C@H](NCc3ccc(F)cc3)C3COC(=O)[C@H]32)OCO4)cc(OC)c1O (stereo not given in full)
TGI [1]: 23.8 µM | TGI [2]: 13.8 µM | TGI [3]: 49.5 µM | TGI [4]: 9.67 µM | TGI [5]: > 100 µM | TGI [7]: 23.1 µM | TGI [8]: > 100 µM

Cc1nc(Nc2ccc(Cl)c(Cl)c2)sc1C(/C=C/c1ccc2c(c1)OCO2)=N/Nc1ccc([N+](=O)[O-])cc1[N+](=O)[O-]
TGI [11]: > 100 µM | TGI [1]: > 100 µM | TGI [2]: > 100 µM | TGI [3]: > 100 µM | TGI [9]: > 100 µM | TGI [4]: > 48.8 µM | TGI [5]: > 100 µM | TGI [6]: > 46.4 µM | TGI [10]: > 100 µM | TGI [7]: > 100 µM | TGI [8]: > 100 µM

COc1ccc(S(=O)(=O)NNS(C)(=O)=O)cc1OC
TGI [1]: > 100 µM | TGI [2]: > 100 µM | TGI [4]: > 100 µM | TGI [5]: > 100 µM | TGI [6]: > 100 µM | TGI [8]: > 100 µM

NC(=O)C1C(=O)Oc2cccnc21 (stereo not given)
TGI [2]: > 100 µM | TGI [4]: > 100 µM | TGI [7]: > 100 µM

O=C(/C=N/O)Nc1cccc(Cl)c1I
TGI [1]: > 100 µM | TGI [2]: > 100 µM | TGI [4]: > 100 µM | TGI [5]: > 100 µM | TGI [6]: > 100 µM | TGI [7]: > 100 µM | TGI [8]: > 100 µM

COc1ccc(/C(C#N)=C2/O/C(=N/N)C(c3ccc(OC)c(OC)c3)C2=O)cc1OC (stereo not given)
TGI [2]: > 100 µM | TGI [3]: > 100 µM | TGI [4]: > 100 µM | TGI [5]: > 100 µM | TGI [6]: > 100 µM | TGI [7]: > 100 µM | TGI [8]: > 100 µM

CNC(=O)N(CCCCC(NC(C)=O)C(=O)NCc1ccccc1)Cc1ccccc1 (stereo not given)
TGI [1]: > 100 µM | TGI [2]: > 100 µM | TGI [3]: > 100 µM | TGI [4]: > 100 µM | TGI [5]: > 100 µM | TGI [6]: > 100 µM | TGI [7]: > 100 µM | TGI [8]: > 100 µM

Cc1c(C(=O)/C=C/c2ccc3c(c2)OCO3)[n+](=O)c2ccccc2n1[O-]
TGI [1]: 57.5 µM | TGI [2]: 52.6 µM | TGI [3]: 69.7 µM | TGI [4]: 92.8 µM | TGI [5]: 61.9 µM | TGI [6]: 85.7 µM | TGI [7]: 75.1 µM | TGI [8]: > 100 µM

CN(C)CC(=O)N1CCc2c([nH]c3ccccc23)C1c1cccnc1 (stereo not given)
GI50 [11]: 12.9 µM | TGI [11]: 77.4 µM | TGI [1]: > 100 µM | TGI [2]: 1.37 µM | TGI [3]: > 100 µM | GI50 [9]: 70.2 µM | TGI [9]: > 100 µM | TGI [4]: > 100 µM | TGI [5]: > 100 µM | TGI [6]: > 100 µM | GI50 [10]: > 100 µM | TGI [10]: > 100 µM | TGI [7]: > 100 µM | TGI [8]: > 100 µM
